For orientation: NOAEL means the highest dose or exposure tested at which no adverse effect was seen. As usually defined, the LOAEL is the lowest dose or exposure tested at which an adverse effect was seen.

The subject of data set [1] is Rattus norvegicus. As to conditions: oral, gavage, Sprague-Dawley.
Data set [2] has as its system Rattus norvegicus. As to conditions: oral.
Data set [3] concerns Rattus norvegicus. Particulars: repeat dose other; oral.
For data set [4], the system named is Rattus norvegicus. As to conditions: oral, gavage.
Data set [5] deals with Rattus norvegicus. Particulars: uterotrophic, duration: 3 days, injection, Active.
For data set [6], the system named is Mus musculus. As to conditions: uterotrophic, duration: 7 days, Active.
In data set [7] the test system is Rattus norvegicus.
Data set [8] has as its system Danio rerio. As to conditions: whole body.
[9] abbreviates: reproduction developmental, duration: 4 days, oral, gavage, F, Sprague-Dawley, generation: P0, P0: dam body weight gain.
Where [10] appears, read: short-term, duration: 3 days, injection, subcutaneous, F, Sprague-Dawley, uterus: absolute blotted uterine weight in the presence of EE.
Where [11] appears, read: short-term, duration: 10 days, oral, gavage, M, BrlHan:WIST, body weight + male accessory sex gland: BC/LA weight (relative).
The mark [12] stands for this setting: short-term, duration: 10 days, oral, gavage, M, BrlHan:WIST, male accessory sex gland: glans penis weight (relative).
The mark [13] stands for this setting: short-term, duration: 10 days, oral, gavage, M, BrlHan:WIST, male accessory sex gland: relative bulbourethral gland weight in the presence of TP + penis: relative penis weight in the absence of TP.
Setting [14] is: short-term, duration: 14 days, oral, gavage, M, Sprague-Dawley, body weight + serum LH + serum TCHO.
Setting [15] is: short-term, duration: 14 days, oral, gavage, M, Sprague-Dawley, serum FSH.
[16] abbreviates: short-term, duration: 14 days, oral, gavage, M, Sprague-Dawley, serum T + testis: testis/body weight.
Where [17] appears, read: short-term, duration: 28 days, oral, gavage, F, Sprague-Dawley, body weight.
[18] abbreviates: short-term, duration: 28 days, oral, gavage, F, Sprague-Dawley, heart: heart weight + thymus: serum T4.
[19] abbreviates: short-term, duration: 28 days, oral, gavage, M, Sprague-Dawley, adrenal gland: hypertrophy of zona fasciculata + body weight + heart: heart weight + liver: decreased hepatocytic glycogen + liver: liver ….
Setting [20] is: chronic, duration: 120 days, F, AB-type, E2 + E2:T ratio + gene expression.
The mark [21] stands for this setting: chronic, duration: 120 days, M/F, AB-type, fertilization rate + malformation rate + survival rate.
Setting [22] is: chronic, duration: 120 days, M, AB-type, E2 + E2:T ratio + gene expression + liver: vtg1 expression + T.
Where [23] appears, read: developmental, duration: 21 days, M/F, developmental lesion.
[24] abbreviates: short-term, duration: 28 days, F, VTG expression.
Setting [25] is: short-term, duration: 28 days, F, thymus: Free T3.

Several values for one entry are separate records, joined by “and”; a condition that tells them apart may be missing. Equal values may be shown once.

Take `c1ccc(Nc2ccc(Nc3ccccc3)cc2)cc1` [N,N'-Diphenyl-p-phenylenediamine]: the NOEL in data set [1] (short-term, duration: 28 days) came out at 1000 mg/kg-day. The NOAEL in data set [2] (reproduction developmental, diet, F, Sprague-Dawley) stood at 0.3 mg/kg-day.
For the molecule `Clc1cc2oc3c(Cl)c(Cl)c(Cl)cc3c2cc1Cl` [2,3,4,7,8-Pentachlorodibenzofuran], the LOAEL is 0.00016 mg/kg-day in data set [3] and 6e-06 mg/kg-day in data set [4] (chronic, duration: 105 weeks, F, Harlan Sprague-Dawley, hepatic, endocrine). Further, the NOAEL came to 1.6e-05 mg/kg-day in data set [3] and 0.0005 mg/kg-day in data set [4] (developmental, duration: 1 days, M/F, Wistar, developmental).
For the molecule `O=C(c1ccccc1)c1ccc(O)cc1O` [2,4-Dihydroxybenzophenone], the LEL in data set [5] (intraperitoneal) is 500 mg/kg-day; in data set [6] (injection, subcutaneous) it was 300 mg/kg-day; in data set [6] (oral), 1000 mg/kg-day.
For the molecule `Cc1cc(N)ccc1N.O=S(=O)(O)O` [p-Toluenediamine sulfate], in data set [2] (subchronic, duration: 13 weeks, gavage, M, Sprague-Dawley), the NOAEL was found to be 2.5 mg/kg-day.
In data set [2] (developmental, duration: 13 days, gavage, F, Sprague-Dawley, developmental), `CNN` [Methylhydrazine] showed an NOAEL of 1 mg/kg-day.
In the case of `[O-2].[Zn+2]` [Zinc oxide], in data set [3], the LOAEL was 320 mg/kg-day and the NOAEL was 160 mg/kg-day.
Consider `CCN(C=O)CC` [Diethylformamide], for which, in data set [2] (chronic, duration: 73 weeks, gavage, M, Wistar, Whole Body Effects), the NOAEL came to 1.1 mg/kg-day.
In the case of `Oc1ccc(C(c2ccc(O)cc2)(C(F)(F)F)C(F)(F)F)cc1` [Bisphenol AF], the LEL in data set [5] (subcutaneous) was 4 mg/kg-day and 8 mg/kg-day and 4.04 mg/kg-day. The NOEL is less than 30 mg/kg-day in data set [1] (subchronic, M, Clinical Observation: Salivation Perioral smudge + Body Weight Changes: Gain decrease + Food Consumption: decrease + Hematology: RBC …); 300 mg/kg-day in data set [7] (setting [9]); 100 mg/kg-day in data set [7] (short-term, duration: 3 days, injection, subcutaneous, F, Crj:CD, body weight); 100 mg/kg-day in data set [7] (short-term, duration: 3 days, injection, subcutaneous, F, Sprague-Dawley, body weight in the absence of EE + body weight in the presence of EE); 4 mg/kg-day in data set [7] (setting [10]); 50 mg/kg-day in data set [7] (setting [11]). Moreover, the NOEL in data set [7] (short-term, duration: 10 days, oral, gavage, M, BrlHan:WIST, male accessory sex gland: Cowper's gland weight (relative) + male accessory sex gland: seminal vesicle weight (relative) + male accessory …) was 600 mg/kg-day; in data set [7] (setting [12]) it was 200 mg/kg-day; in data set [7] (short-term, duration: 10 days, oral, gavage, M, BrlHan:WIST, male accessory sex gland: relative bulbourethral gland weight in the absence of TP + male accessory sex gland: relative seminal vesicle …) it was 600 mg/kg-day; in data set [7] (setting [13]) it was 200 mg/kg-day; in data set [7] (setting [14]), 10 mg/kg-day; in data set [7] (setting [15]), 2 mg/kg-day. The NOEL in data set [7] (setting [16]) stood at 50 mg/kg-day; in data set [7] (short-term, duration: 14 days, oral, gavage, M, Sprague-Dawley, testis: testis weight), 200 mg/kg-day; in data set [7] (short-term, duration: 28 days, oral, gavage, F, Sprague-Dawley, adrenal gland: hypertrophy of zona fasciculata + bone marrow: decreased hematopoiesis + brain: brain weight + liver: decreased hepatocytic …) it was 100 mg/kg-day; in data set [7] (setting [17]), 10 mg/kg-day; in data set [7] (setting [18]), 30 mg/kg-day; in data set [7] (short-term, duration: 28 days, oral, gavage, M, Sprague-Dawley, adrenal gland: adrenals weight + bone marrow: decreased hematopoiesis + brain: brain weight + spleen: decreased extramedullary hematopoiesis…), 100 mg/kg-day. Moreover, the NOEL in data set [7] (setting [19]) was found to be 30 mg/kg-day; in data set [8] (setting [20]), 0.025 mg/L; in data set [8] (setting [21]), 0.025 mg/L; in data set [8] (setting [22]), 0.005 mg/L; in data set [8] (setting [23]) it was 1 mg/L; in data set [8] (setting [24]) it was 0.05 mg/L. In addition, the NOEL in data set [8] (setting [25]) was found to be 0.25 mg/L; in data set [8] (short-term, duration: 28 days, M, VTG expression), 0.25 mg/L; in data set [8] (short-term, duration: 28 days, M, body weight + length) it was 0.05 mg/L. For the same molecule, the LOEL was determined as 400 mg/kg-day in data set [7] (setting [9]); 8 mg/kg-day in data set [7] (short-term, duration: 3 days, injection, subcutaneous, F, Crj:CD, uterus: uterine dry weight (absolute) + uterus: uterine dry weight (relative)); 4 mg/kg-day in data set [7] (short-term, duration: 3 days, injection, subcutaneous, F, Sprague-Dawley, uterus: absolute blotted uterine weight in the absence of EE + uterus: relative blotted uterine weight in the absence of EE + uterus: …); 20 mg/kg-day in data set [7] (setting [10]); 200 mg/kg-day in data set [7] (setting [11]); 600 mg/kg-day in data set [7] (setting [12]). For the same molecule, the LOEL in data set [7] (setting [13]) was determined as 600 mg/kg-day; in data set [7] (short-term, duration: 10 days, oral, gavage, M, BrlHan:WIST, male accessory sex gland: relative seminal vesicle weight in the presence of TP + penis: relative penis weight in the presence of TP), 50 mg/kg-day; in data set [7] (setting [14]), 50 mg/kg-day; in data set [7] (setting [15]), 10 mg/kg-day; in data set [7] (setting [16]), 200 mg/kg-day; in data set [7] (setting [17]) it was 30 mg/kg-day. For the same molecule, the LOEL in data set [7] (setting [18]) was 100 mg/kg-day; in data set [7] (setting [19]), 100 mg/kg-day; in data set [8] (setting [20]), 0.125 mg/L; in data set [8] (setting [21]), 0.125 mg/L; in data set [8] (chronic, duration: 120 days, M/F, AB-type, hatchability), 0.005 mg/L; in data set [8] (setting [22]), 0.025 mg/L. For the same molecule, the LOEL amounted to 1.5 mg/L in data set [8] (setting [23]); 0.5 mg/L in data set [8] (short-term, duration: 21 days, M/F, vitellogenin); 0.25 mg/L in data set [8] (setting [24]); 0.05 mg/L in data set [8] (short-term, duration: 28 days, F, condition factor); 1 mg/L in data set [8] (setting [25]); 1 mg/L in data set [8] (short-term, duration: 28 days, M, 17beta-estradiol + VTG expression). Moreover, the LOEL in data set [8] (short-term, duration: 28 days, M, body weight + length + T) turned out to be 0.25 mg/L.

Source of the values: EPA's ToxValDB 9.5.
